1 molecule from patent US12077503B2, “Substituted cyclic amides and their use as herbicides” (FMC CORPORATION, priority 2015, dated 2024) can be followed below.

Holding throughout (assay type): in vivo
The subject of test [1] is ducksalad (Heteranthera limosa). Briefly: Test B flooded paddy test. Conditions: Heteranthera limosa, 360 h, Flood, 250 g ai/ha; visually evaluated after 13 to 15 d; read-out: Plant response rating, Ducksalad (0 to 100 scale where 0 is no effect and 100 is complete control). Put shortly: (§1)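 Flooding to 3 cm over soil accompanied treatment, which consisted of adding compound to the standing water around 2-leaf plants; depth was then maintained. Visual assessment versus controls followed at 13 to 15 d (scale 0–100, 0 meaning no effect).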

The subject of test [2] is rice (Oryra sativa). Briefly: Test B flooded paddy test. Particulars: Oryza sativa, 360 h, Flood, 250 g ai/ha; visually evaluated after 13 to 15 d; read-out: Plant response rating, Rice (0 to 100 scale where 0 is no effect and 100 is complete control). Summed up:
as §1

For test [3], the system named is sedge, umbrella (small-flower umbrella sedge, Cyperus difformis). Nature of the test: Test B flooded paddy test. Particulars: Cyperus difformis, 360 h, Flood, 250 g ai/ha; visually evaluated after 13 to 15 d; read-out: Plant response rating, Sedge, Umbrella (0 to 100 scale where 0 is no effect and 100 is complete control). Put shortly: as §1
Test [4] has as its system barnyardgrass (Echinochloa crus-galli). Nature of the test: Test B flooded paddy test. Conditions: Echinochloa crus-galli, 360 h, Flood, 250 g ai/ha; visually evaluated after 13 to 15 d; read-out: Plant response rating, Barnyardgrass (0 to 100 scale where 0 is no effect and 100 is complete control). Put shortly:
as §1

Test [5] relates to pigweed (Amaranthus retroflexus). Briefly: Test A preemergence. Particulars: Amaranthus retroflexus, pre-emergence, 240 h, 0 to 100 scale (0 no effect, 100 complete control), read-out: Plant response rating, Pigweed.
The subject of test [6] is Kochia (Kochia scoparia). Nature of the test: Test A preemergence. Conditions: Bassia scoparia, pre-emergence, 240 h, 0 to 100 scale (0 no effect, 100 complete control), read-out: Plant response rating, Kochia. Put shortly: (§2)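 Seeded soil received test chemicals as a preemergence directed spray, and seedlings at one to two leaves, 2–10 cm tall, received them postemergence, in a non-phytotoxic, surfactant-containing solvent mixture. Pots were held in a greenhouse for approximately 10 d, then rated for injury from 0, no effect, to 100, complete control.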

The test system of test [7] is ragweed (common ragweed, Ambrosia elatior). Nature of the test: Test A preemergence. Particulars: Ambrosia artemisiifolia, pre-emergence, 240 h, 0 to 100 scale (0 no effect, 100 complete control), read-out: Plant response rating, Ragweed. Put shortly:
as §2

In test [8] the test system is barnyardgrass (Echinochloa crus-galli). Briefly: Test A preemergence. Conditions: Echinochloa crus-galli, pre-emergence, 240 h, 0 to 100 scale (0 no effect, 100 complete control), read-out: Plant response rating, Barnyardgrass. Summed up:
as §2

Test [9] deals with giant foxtail (Setaria faberii). Briefly: Test A preemergence. Particulars: Setaria faberi, pre-emergence, 240 h, 0 to 100 scale (0 no effect, 100 complete control), read-out: Plant response rating, Foxtail, Giant. Put shortly: as §2
The subject of test [10] is ryegrass, Italian (Italian ryegrass, Lolium multiflorum). Briefly: Test A preemergence. Conditions: Lolium multiflorum, pre-emergence, 240 h, 0 to 100 scale (0 no effect, 100 complete control), read-out: Plant response rating, Ryegrass, Italian. Put shortly:
as §2

The subject of test [11] is pigweed (Amaranthus retroflexus). Briefly: Test A postemergence. Particulars: Amaranthus retroflexus, post-emergence, 240 h, Postemergence, read-out: Plant response rating, Pigweed. Put shortly: as §2
The test system of test [12] is barnyardgrass (Echinochloa crus-galli). Nature of the test: Test A postemergence. Particulars: Echinochloa crus-galli, post-emergence, 240 h, Postemergence, read-out: Plant response rating, Barnyardgrass. Summed up:
as §2

The subject of test [13] is giant foxtail (Setaria faberii). Nature of the test: Test A postemergence. Conditions: Setaria faberi, post-emergence, 240 h, Postemergence, read-out: Plant response rating, Foxtail, Giant. Summed up:
as §2

Test [14] deals with ryegrass, Italian (Italian ryegrass, Lolium multiflorum). Briefly: Test A postemergence. Conditions: Lolium multiflorum, post-emergence, 240 h, Postemergence, read-out: Plant response rating, Ryegrass, Italian. Put shortly: as §2
The mark [15] stands for this setting: 125 g ai/ha, visual injury after approx. 10 d, 0 to 100 scale, 0 no effect, 100 complete control.
Where [16] appears, read: 500 g ai/ha, visual injury, 0 to 100 scale (0 no effect, 100 complete control), approx. 10 d.

Turning to `CC(C)c1cccc([C@H]2CN(C)C(=O)[C@@H]2C(=O)Nc2cccc(F)c2F)c1` [Compound 1388], the pest or weed control at 250 g/ha in [1] is 80%; in test [2] it was 0%; in [3], 0%; in [4], 65%. Moreover, the pest or weed control at 500 g/ha in test [5] (500 g ai/ha, preemergence) is 70%; in [6] (500 g ai/ha, preemergence), 90%; in test [7] (500 g ai/ha, preemergence) it was 70%; in test [8] (500 g ai/ha, preemergence), 100%; in test [9] (500 g ai/ha, preemergence) it was 100%; in test [10] (500 g ai/ha, preemergence), 100%. The pest or weed control at 500 g/ha in test [11] (setting [16]) turned out to be 50%; in [12] (setting [16]), 100%; in test [13] (setting [16]) it was 90%; in test [14] (setting [16]) it was 90%. Besides, the pest or weed control at 125 g/ha came out at 30% in test [5] (Preemergence, 125 g ai/ha); 80% in test [6] (Preemergence, 125 g ai/ha); 0% in test [7] (Preemergence, 125 g ai/ha); 100% in [8] (Preemergence, 125 g ai/ha); 100% in [9] (Preemergence, 125 g ai/ha); 90% in test [10] (Preemergence, 125 g ai/ha). For the same molecule, the pest or weed control at 125 g/ha in test [11] (setting [15]) is 40%; in test [12] (setting [15]), 100%; in test [13] (setting [15]), 90%; in [14] (setting [15]), 60%.
